What was measured:
[1] = target: Human immunodeficiency virus type 1 protease (Human immunodeficiency virus 1, UniProt Q72874); assay: In vitro inhibitory concentration to prevent cleavage of a substrate by the protease enzyme
[2] = test system: MT4; assay: Compound was tested in vitro for inhibition of spread of viral infection in MT-4 human T-lymphoid cells infected with the IIIb isolate; assay type: functional; details: read-out: CIC95

SMILES | IC50 [1] | IC95 [2]
CC(C)(C)NC(=O)[C@@H]1CN(Cc2ccc(Cl)c(Cl)c2)CCN1C[C@@H](O)C[C@@H](Cc1ccccc1)C(=O)N[C@H]1c2ccccc2C[C@H]1O | 1.1 nM | 200 nM
CC(C)(C)NC(=O)[C@@H]1CN(S(C)(=O)=O)CCN1C[C@@H](O)C[C@@H](Cc1ccccc1)C(=O)N[C@H]1c2ccccc2C[C@H]1O | 1.6 nM | 400 nM
CC(C)(C)NC(=O)[C@@H]1CN(Cc2cccnc2)CCN1C[C@@H](O)C[C@@H](Cc1ccccc1)C(=O)N[C@H]1c2ccccc2C[C@H]1O [INDINAVIR] |  | 50.5 nM
